Test results: patent EP1101496A1, “THERAPEUTIC AGENTS FOR ALLERGIC DISEASES” (FUJI YAKUHIN KOGYO KABUSHIKI KAISHA, priority 1998, dated 2000)

Key:
[1] = system: Allergic Peritonitis; assay: Allergic peritonitis induced by ovalbumin; assay type: in vivo, male Balb/c mice; details: for inhibition of infiltration of lymphocytes/macrophages into the peritoneal cavity: ovalbumin challenge
Experimental: In the same manner as in Example 23, mice were actively sensitized with ovalbumin and Alum, and, on Day 14 after the initial sensitization, elicited with an inducing antigen solution. A test metalloproteinase inhibitor compound (Compound No. 20: 30 mg/kg) or a negative control solvent, physiological saline (10 mL/kg), was administered subcutaneously to each animal 6, 3 hours, and 5 minutes pre-induction, 3, and 6 hours post-induction. At 24 hours post-induction, a physiological saline (containing heparin) was injected intraperitoneally at 4 mL/mouse for peritoneal lavage. An aliquot of the retrieved washout medium was taken, and not only measured for a PEC density but also stained for PEC followed by fractional counting. Each effect of the compound on the total PEC number (PEC density× 4 mL), and eosinophils and lymphocytes/macrophages is shown in Table 15. Almost similarly to Examples 22 to 24, the total PEC number and the numbers of eosinophils and lymphocytes/macrophages in the peritoneal cavity are reduced.
Each efficacy on intraperitoneal exudation of neutrophils was examined according to the methods as disclosed in Ouchi et al., "Seibutsu Yakukagaku Jikken Koza, Ensho To Allergy (Inflammation and Allergy) I-3", pp.139 to 151, Hirokawa Publishing Co., Japan and Spicer et al., The International Archives of Allergy and Applied Immunology, 81: 81 to 84, 1986.
In the same manner as in Example 23, male Balb/c mice were sensitized with ovalbumin and an aluminum hydroxide gel, and, on Day 14 after the initial sensitization, elicited with an antigen solution to raise allergic peritonitis. Each test metalloproteinase inhibitor (Compound No. 20 or 21: 30 mg/kg) or a negative control solvent, physiological saline (10 mL/kg), was administered subcutaneously to each animal 1 hour prior to induction, and 3 hours post-induction. At 6 hours post-induction, peritoneal lavage was done similarly to Example 22, measured for a PEC density, and counted for the total PEC number. In the same manner as in Example 22, PEC was stained, and subjected to fractional counting under a microscope with classification into neutrophils, eosinophils, lymphocytes/macrophages and basophils based on their form and stain nature. Each cell ratio was as follows: 2.3% (neutrophil), 1.1% (eosinophil), 95.4% (lymphocyte/macrophage), and 1.2% (basophil) for unsensitized/physiological saline-administered mice; and 5.7% (neutrophil), 11.9% (eosinophil), 81.3% (lymphocyte/macrophage), and 1.1% (basophil) for sensitized/physiological saline-administered mice. By a similar line of reasoning in Example 22, basophils were excluded from subjects to be examined. In the same manner as in Example 22, intraperitoneal exudation inhibition rates were calculated and expressed as the therapeutic efficacies.

[2] = system: IgE-mediated auricle edema; assay: Auricle edema in experimental atopic dermatitis model (anti-DNP IgE sensitization, DNFB elicitation); assay type: in vivo, Balb/c mice; details: for % Inhibition vLPR: 7 or 8 days post-elicitation; for % Inhibition vLPR / % Inhibition IPR / % Inhibition LPR: painted on auricles 60 µg/ear/dose in ethanol twice a day; for % Inhibition IPR: 1 hour post-elicitation, 1 hour pre-elicitation to 6 days post-elicitation; for % Inhibition LPR: 1 day post-elicitation
Experimental: Intravenous injection of an anti-2,4-dinitrophenol (DNP) antibody (anti-DNP Ab, monoclonal IgE Ab; its antibody titer was 1 : 512 to 1 : 1024 by a rat heterologous passive cutaneous anaphylaxis reaction using a Wister rat) into a tail vein of female Balb/c mice (7-week old, body weight: 17 to 20 g, purchased from JAPAN SLC, Inc.) at a dose of […] per animal raised passive sensitization. Twenty four hours post-sensitization, 0.1% 2,4-dinitrofluorobenzene (DNFB; Nacalai Tesque, Inc.) in ethanol was painted onto both sides of a pair of mouse auricles at a dose of 10 µL per each side for elicitation.
Fresh unsensitized mice were painted with 0.1% DNFB in ethanol onto their ear in the same manner as aforementioned and served as a control group. Not only immediately prior to elicitation but also 1 hour, 5 hours, daily between Days 1 and 14, and on Day 16 post-elicitation, ear thickness was measured using a dial thickness gauge (Peacock Co.). Each degree of auricle edemas was calculated: Auricular Edema (µm)=(Ear Thickness Post-Elicitation, µm) - (Ear Thickness immediately prior to Elicitation, µm) [formula]
Balb/c mice were passively sensitized with anti-DNP IgE Ab in the same manner as in Example 1. Twenty four hours later, 0.1% DNFB in ethanol was painted onto both sides of a pair of mouse auricles at a dose of 10 µL per each side for elicitation.
Immediately prior to elicitation, 1 hour and on Day 1 post-elicitation, auricle thickness was measured in the same manner as in Example 1. Each therapeutic efficacy is recorded as a percent inhibition wherein the "auricle edema (untreated group)" is used as a control. Auricle Edema Inhibition (%) = [ 1 -(Auricle Edema (Treated Group))/(Auricle Edema (Untreated Group))] × 100 (%) [formula]
(§1) Mice were sensitized with anti-DNP IgE Ab and then elicited by painting 0.1% DNFB in ethanol onto both sides of a pair of mouse auricles at a dose of 10 µL per each side 24 hours post-sensitization in the same manner as in Example 1. […] Immediately prior to elicitation, and on Day 7 post-elicitation, auricle thickness was similarly measured. Each therapeutic efficacy is recorded as a percent inhibition wherein the auricle edema in the untreated group is used as a control.
as §1, with “(untreated group)” for “in the untreated group”
Mice were sensitized with anti-DNP IgE Ab and then elicited by painting 0.1% DNFB in ethanol onto both sides of a pair of mouse auricles at a dose of 10 µL per each side 24 hours post-sensitization in the same manner as in Example 1. […] Immediately prior to elicitation, at 1 and 4 hours and on Days 1, 3 and 7 post-elicitation, auricle thickness was similarly measured. From each auricle edema (µm) based on the auricle thickness immediately prior to elicitation, especially a prophylactically therapeutic efficacy of the test compound was evaluated.
Mice were sensitized with anti-DNP IgE Ab and then elicited by painting 0.1% DNFB in ethanol onto both sides of a pair of mouse auricles at a dose of 10 µL per each side 24 hours post-sensitization in the same manner as in Example 1. A solution of a test metalloproteinase inhibitor (Compound No. 8; 50 µg/ear/dose, twice a day) in ethanol was painted onto both sides of a pair of the mouse auricles 1 hour pre-elicitation, 0.25, 3, 4, 5 and 6 days post-elicitation (5 animals per group). Immediately prior to elicitation, at 0.5, 1 and 4 hours and on Days 1, 3 and 7 post-elicitation, auricle thickness was similarly measured. Each amount of auricle edemas was calculated (average± standard deviation). […]

[3] = 30 mg/kg s.c. 6, 3 hours and 5 minutes pre-induction, 3 and 6 hours post-induction, 24 hours post-induction (Example 25)
[4] = 30 mg/kg s.c. 1 hour prior to and 3 hours post-induction, 6 hours post-induction (Example 26)

Structure (SMILES) | Leukocyte exudate inhibition rate (%) (Macrophages)/(Lymphocytes) [1, 3] | Leukocyte exudate inhibition rate (%) Eosinophils [1, 3] | Leukocyte exudate inhibition rate (%) Total PEC Number [1, 3] | Leukocyte exudate inhibition rate (%) Eosinophils [1, 4] | Leukocyte exudate inhibition rate (%) Neutrophils [1, 4] | Leukocyte exudate inhibition rate (%) Total PEC Number [1, 4] | % Inhibition vLPR [2] | % Inhibition IPR [2] | % Inhibition LPR [2] | inhibition of infiltration of lymphocytes/macrophages into the peritoneal cavity ([1]; 30 mg/kg i.p. 5 minutes prior to and 3 and 6 hours post-induction (Example 23)) | inhibition of infiltration of lymphocytes/macrophages into the peritoneal cavity ([1]; 30 mg/kg s.c. 6 hours and 5 minutes prior to induction, 24 hours after induction (Example 24)) | inhibitory efficacy on IgE-mediated auricle edema in IPR, LPR and vLPR (FIG. 6) ([2]; 60 mg/kg s.c. only 24 and 2 hours prior to elicitation, compared with prednisolone 10 mg/kg i.p.) | inhibitory efficacy on IgE-mediated auricle edema in IPR, LPR and vLPR (FIG. 7) ([2]; painted on auricles, 50 µg/ear/dose in ethanol, 1 hour pre-elicitation and 0.25, 3, 4, 5, 6 days post-elicitation)
CNC(=O)[C@H](Cc1ccc(NC(=N)N)cc1)NC(=O)[C@H](CC(C)C)C(CCCc1ccccc1)C(=O)NO.Cl (single isomer, unassigned) [Compound No. 20, N-[4-(N-hydroxyamino)-2(R)-isobutyl-3(R or S)-(3-phenyltrimethylene)succinyl]-L-4'-guanidophenylalanine-N-methylamide 1 hydrochloride] | 55.1% | 38.9% | 49.6% | 38.4% | 41.4% | 40.9% | 31% | 56% | 58% | – | – | – | –
CNC(=O)[C@H](Cc1ccc(N=C(N)N)cc1)NC(=O)[C@@H](CC(=O)NO)CC(C)C.O=S(=O)(O)O [Compound No. 21, N-[4-(N-hydroxyamino)-2(R)-isobutylsuccinyl]-L-4'-guanidophenylalanine-N-methylamide 1 sulfate] | – | – | – | – | 27.1% | 38.6% | 35% | 31% | 22% | – | – | – | –
CNC(=O)[C@H](Cc1ccc(NC(=N)N)cc1)NC(=O)[C@H](CC(C)C)C(CCCc1ccccc1)C(=O)NO (single isomer, unassigned) [Compound No. 8, N-[4-(N-hydroxyamino)-2(R)-isobutyl-3(R or S)-(3-phenyltrimethylene)succinyl]-L-4'-guanidophenylalanine-N-methylamide 1 acetate] | – | – | – | – | – | – | – | – | – | 74.9% | 91.2% | edema-inhibitory activity equivalent to that of prednisolone in IPR and slightly and markedly higher than that of prednisolone in LPR and vLPR | endowed with an inhibitory activity on edemas in any of IPR, LPR, and vLPR
